Tests used:
Assay in all cases: cells
Format in all cases: cell-based
RPMI-8226 = RPMI-8226 (Leukemia), 10 μM, 48 hours
SNB-75 = SNB-75 (CNS Cancer), 10 μM, 48 hours
NCI/ADR-RES = NCI/ADR-RES (Ovarian Cancer), 10 μM, 48 hours
UACC-62 = UACC-62 (Melanoma), 10 μM, 48 hours
RXF 393 = RXF 393 (Renal Cancer), 10 μM, 48 hours
OVCAR-5 = OVCAR-5 (Ovarian Cancer), 10 μM, 48 hours
K-562 = K-562 (Leukemia), 10 μM, 48 hours
HT29 = HT29 (Colon Cancer), 10 μM, 48 hours
NCI-H226 = NCI-H226 (Non-Small Cell Lung Cancer), 10 μM, 48 hours
NCI-H322M = NCI-H322M (Non-Small Cell Lung Cancer), 10 μM, 48 hours
M14 = M14 (Melanoma), 10 μM, 48 hours
T-47D = T-47D (Breast Cancer), 10 μM, 48 hours
OVCAR-3 = OVCAR-3 (Ovarian Cancer), 10 μM, 48 hours
MDA-MB-468 = MDA-MB-468 (Breast Cancer), 10 μM, 48 hours
MOLT-4 = MOLT-4 (Leukemia), 10 μM, 48 hours
KM12 = KM12 (Colon Cancer), 10 μM, 48 hours
SF-268 = SF-268 (CNS Cancer), 10 μM, 48 hours
COLO 205 = COLO 205 (Colon Cancer), 10 μM, 48 hours
UO-31 = UO-31 (Renal Cancer), 10 μM, 48 hours
OVCAR-8 = OVCAR-8 (Ovarian Cancer), 10 μM, 48 hours
A498 = A498 (Renal Cancer), 10 μM, 48 hours
HS 578T = HS 578T (Breast Cancer), 10 μM, 48 hours
MALME-3M = MALME-3M (Melanoma), 10 μM, 48 hours
HCT-15 = HCT-15 (Colon Cancer), 10 μM, 48 hours
HCC-2998 = HCC-2998 (Colon Cancer), 10 μM, 48 hours
SF-539 = SF-539 (CNS Cancer), 10 μM, 48 hours
LOX IMVI = LOX IMVI (Melanoma), 10 μM, 48 hours
SN12C = SN12C (Renal Cancer), 10 μM, 48 hours
HCT-116 = HCT-116 (Colon Cancer), 10 μM, 48 hours
PC-3 = PC-3 (Prostate Cancer), 10 μM, 48 hours

Structure (SMILES)	growth percentage (RPMI-8226) [%]	growth percentage (SNB-75) [%]	growth percentage (NCI/ADR-RES) [%]	growth percentage (UACC-62) [%]	growth percentage (RXF 393) [%]	growth percentage (OVCAR-5) [%]	growth percentage (K-562) [%]	growth percentage (HT29) [%]	growth percentage (NCI-H226) [%]	growth percentage (NCI-H322M) [%]	growth percentage (M14) [%]	growth percentage (T-47D) [%]	growth percentage (OVCAR-3) [%]	growth percentage (MDA-MB-468) [%]	growth percentage (MOLT-4) [%]	growth percentage (KM12) [%]	growth percentage (SF-268) [%]	growth percentage (COLO 205) [%]	growth percentage (UO-31) [%]	growth percentage (OVCAR-8) [%]	also measured
CNc1nc2ccccc2c2c1-c1ccc(Cl)cc1C2=O [SJ-1, 9-Chloro-6-(methylamino)-11H-indeno[1,2-c]quinolin-11-one]	91.82	79.70	92.22	77.41	97.15	81.54	90.99	99.44	92.19	80.85	112.68	23.53	84.91	-31.61	93.26	66.82	97.27	66.47	56.91	94.33	growth percentage (A498): 82.03%; growth percentage (HS 578T): 85.28%; growth percentage (MALME-3M): 114.83%; growth percentage (HCT-15): 66.20%; growth percentage (HCC-2998): 57.51%; growth percentage (SF-539): 92.08%; growth percentage (LOX IMVI): 93.40%; growth percentage (SN12C): 94.82%; growth percentage (HCT-116): 88.31%; growth percentage (PC-3): 89.44%
CC1CCN(c2nc3ccccc3c3c2-c2ccc(Cl)cc2C3=O)CC1 [SJ-6, 9-Chloro-6-(4-methylpiperidin-1-yl)-11H-indeno[1,2-c]quinolin-11-one]	97.99	84.42	90.28	93.36	97.51	104.92	103.57	104.84	94.59	107.08	96.60	67.68	97.59	97.12	94.41	94.80	96.49	104.79	76.25	96.38	growth percentage (A498): 87.55%; growth percentage (HS 578T): 98.38%; growth percentage (MALME-3M): 98.31%; growth percentage (HCT-15): 97.78%; growth percentage (HCC-2998): 102.76%; growth percentage (SF-539): 90.22%; growth percentage (SN12C): 99.08%; growth percentage (HCT-116): 102.51%; growth percentage (PC-3): 90.64%
O=C1c2cc(Cl)ccc2-c2c(N3CCN(C4CCCC4)CC3)nc3ccccc3c21 [SJ-14, 9-Chloro-6-(4-cyclopentylpiperazin-1-yl)-11H-indeno[1,2-c]quinolin-11-one]	94.89	86.36	100.39	95.06	95.60	106.41	99.26	93.22	92.80	98.50	105.34	92.20	99.54	103.99	98.39	99.33	96.39	104.54	72.57	96.55	growth percentage (A498): 88.64%; growth percentage (HS 578T): 99.40%; growth percentage (MALME-3M): 92.48%; growth percentage (HCT-15): 89.64%; growth percentage (HCC-2998): 106.04%; growth percentage (SF-539): 101.34%; growth percentage (SN12C): 99.08%; growth percentage (HCT-116): 91.34%; growth percentage (PC-3): 86.19%
O=C1c2cc(Cl)ccc2-c2c(N3CCN(c4ccccc4)CC3)nc3ccccc3c21 [SJ-16, 9-Chloro-6-(4-phenylpiperazin-1-yl)-11H-indeno[1,2-c]quinolin-11-one]	95.33	33.20	97.88	87.17	72.95	88.56	95.17	82.40	79.43	98.63	97.52	75.93	98.07	95.37	98.13	98.34	85.45	102.19	65.02	75.82	growth percentage (A498): 97.48%; growth percentage (MALME-3M): 100.05%; growth percentage (HCT-15): 80.71%; growth percentage (HCC-2998): 106.23%; growth percentage (SF-539): 83.17%; growth percentage (SN12C): 87.90%; growth percentage (HCT-116): 78.18%; growth percentage (PC-3): 79.79%
COc1cccc(N2CCN(c3nc4ccccc4c4c3-c3ccc(Cl)cc3C4=O)CC2)c1 [SJ-20, 9-Chloro-6-(4-(3-methoxyphenyl)piperazin-1-yl)-11H-indeno[1,2-c]quinolin-11-one]	93.63	37.76	92.82	86.44	78.38	98.22	94.25	95.93	89.19	91.93	105.07	86.68	104.27	101.04	95.46	105.95	83.89	106.63	86.64	83.98	growth percentage (A498): 104.53%; growth percentage (HS 578T): 71.75%; growth percentage (MALME-3M): 92.79%; growth percentage (HCT-15): 100.39%; growth percentage (HCC-2998): 105.79%; growth percentage (SF-539): 83.97%; growth percentage (SN12C): 88.17%; growth percentage (HCT-116): 93.02%; growth percentage (PC-3): 72.83%
